Assay results reported in ChEMBL document CHEMBL1201862, “PubChem BioAssay data set” (2004).
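In this assay, cells in 96-well plates receive the compound at five concentrations for 48 hours. Endpoints are linearly interpolated between the surrounding concentrations. Here, GI50 denotes the concentration required for 50% inhibition of growth.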 Active and inactive are the calls of the source. Rule as the data show it: active = GI50 up to about 1.1 µM and inactive = higher.

What was measured:
Assay in all cases: DTP human tumour cell line panel, 48 h
HCC 2998 = system: HCC 2998
HT-29 = system: HT-29
OVCAR-4 = system: OVCAR-4
NCI-H522 = system: NCI-H522
IGROV-1 = system: IGROV-1
HCT-15 = system: HCT-15
SW-620 = system: SW-620
SF-539 = system: SF-539
OVCAR-8 = system: OVCAR-8
HCT-116 = system: HCT-116
A498 = system: A498
COLO 205 = system: COLO 205
NCI-H460 = system: NCI-H460
UO-31 = system: UO-31
HL-60 = system: HL-60
HOP-92 = system: HOP-92
SR = system: SR

SMILES | GI50 (HCC 2998) | GI50 (HT-29) | GI50 (OVCAR-4) | GI50 (NCI-H522) | GI50 (IGROV-1) | GI50 (HCT-15) [µM] | GI50 (SW-620) | GI50 (SF-539) | GI50 (OVCAR-8) | GI50 (HCT-116) | GI50 (A498) | GI50 (COLO 205) | GI50 (NCI-H460) | GI50 (UO-31) | GI50 (HL-60) | GI50 (HOP-92) | GI50 (SR)
CN(C)CCn1cnc2sc3ccccc3c21 | > 100 µM (inactive) | > 100 µM (inactive) | > 100 µM (inactive) | > 100 µM (inactive) | > 100 µM (inactive) | > 100 | > 100 µM (inactive) | > 100 µM (inactive) | > 100 µM (inactive) | > 100 µM (inactive) | > 100 µM (inactive) | > 100 µM (inactive) | > 100 µM (inactive) |  |  |  | 
Cc1ccc(S(=O)(=O)C(C#N)c2nc3ccccc3nc2-n2ccnc2)cc1 (stereo unspecified) | > 100 µM (inactive) | > 100 µM (inactive) | > 100 µM (inactive) | > 100 µM (inactive) | > 100 µM (inactive) | > 100 |  | > 100 µM (inactive) | > 100 µM (inactive) | > 100 µM (inactive) |  | > 100 µM (inactive) | > 100 µM (inactive) | > 100 µM (inactive) | > 100 µM (inactive) | > 100 µM (inactive) | 
N#CN1CCC=C(c2cc3ccccc3[nH]2)C1 | 185 µM (inactive) | > 448 µM (inactive) |  | 109 µM (inactive) | 277 µM (inactive) | 370 | 414 µM (inactive) | > 448 µM (inactive) | 300 µM (inactive) | 285 µM (inactive) |  | 388 µM (inactive) | > 448 µM (inactive) |  | 164 µM (inactive) | 146 µM (inactive) | 159 µM (inactive)
CCOC(=O)C1=C(Nc2ccc(NC3=C(C(=O)OCC)C(=O)CS3)cc2)SCC1=O |  | 19.3 µM (inactive) | 30.9 µM (inactive) | 13.7 µM (inactive) | 24.3 µM (inactive) | 18.5 | 25.9 µM (inactive) | 20.1 µM (inactive) | 27 µM (inactive) | 18.5 µM (inactive) | 20.5 µM (inactive) | 17.7 µM (inactive) | 30.1 µM (inactive) | 17.5 µM (inactive) | 32.7 µM (inactive) | 24.6 µM (inactive) | 
Cc1cc(C2CCCCC2)n(O)c(=O)c1 [CICLOPIROX OLAMINE] | 4.97 µM (inactive) | 9.08 µM (inactive) |  | 2.96 µM (inactive) | 3.46 µM (inactive) | 4.39 | 5.85 µM (inactive) | 5.52 µM (inactive) | 3.22 µM (inactive) | 3.7 µM (inactive) | 14.7 µM (inactive) | 39.4 µM (inactive) | 2.32 µM (inactive) | 6.32 µM (inactive) | 0.178 µM (active) | 0.605 µM (active) | 2.95 µM (inactive)
Cc1cc(N(CCC#N)CCC#N)ccc1/N=N/c1ccc([N+](=O)[O-])cc1 | > 100 µM (inactive) | > 100 µM (inactive) | 19.7 µM (inactive) | > 100 µM (inactive) |  | 39.4 | > 10 µM (inactive) | > 100 µM (inactive) | 23 µM (inactive) | 17.7 µM (inactive) | > 100 µM (inactive) | > 100 µM (inactive) | 39.4 µM (inactive) | > 100 µM (inactive) | > 100 µM (inactive) | 55 µM (inactive) | > 100 µM (inactive)
O=C1/C(=C/c2cccc([N+](=O)[O-])c2)COc2ccccc21 |  | 2.36 µM (inactive) | 2.49 µM (inactive) | 1.67 µM (inactive) | 7.85 µM (inactive) | 1.55 | 1.11 µM (active) | 4.42 µM (inactive) | 2.84 µM (inactive) | 1.76 µM (inactive) | 40.8 µM (inactive) | > 42.2 µM (inactive) | 15.6 µM (inactive) | 15.2 µM (inactive) | 2.08 µM (inactive) | 19.1 µM (inactive) | 
CCOC(=O)C1C(NC(N)=O)N(Cc2ccccc2)C(=O)N1Cc1ccccc1 (stereo unspecified) | > 100 µM (inactive) | > 100 µM (inactive) | > 100 µM (inactive) | > 100 µM (inactive) | > 100 µM (inactive) | > 100 | > 100 µM (inactive) | > 100 µM (inactive) | > 100 µM (inactive) | > 100 µM (inactive) |  | > 100 µM (inactive) | > 100 µM (inactive) | > 100 µM (inactive) | > 100 µM (inactive) | > 100 µM (inactive) | > 100 µM (inactive)
CC1CC[C@]2(C(=O)O)CCC3(C)C(=CC(=O)C4[C@@]5(C)CCC(=O)C(C)(C)C5CC[C@]43C)[C@@H]2[C@H]1C (stereo partly specified) |  | 28.4 µM (inactive) | 35.2 µM (inactive) | 18.4 µM (inactive) | 26.9 µM (inactive) |  | 39.9 µM (inactive) | 18.9 µM (inactive) | 29.4 µM (inactive) | 18.1 µM (inactive) | 32.4 µM (inactive) | 17.6 µM (inactive) | 26.2 µM (inactive) | 12.5 µM (inactive) | 4.75 µM (inactive) | 25 µM (inactive) | 10.9 µM (inactive)
C=CC1(C)/C(=N\O)C(C)(CC)C(=O)N1O (stereo unspecified) |  | > 100 µM (inactive) | > 100 µM (inactive) | > 100 µM (inactive) | > 100 µM (inactive) | > 100 | > 100 µM (inactive) | > 100 µM (inactive) | > 100 µM (inactive) | > 100 µM (inactive) | > 100 µM (inactive) | > 100 µM (inactive) | > 100 µM (inactive) | > 100 µM (inactive) | > 100 µM (inactive) | > 100 µM (inactive) | > 100 µM (inactive)
Cc1cc(OCC(O)CO)ccc1-c1ccccc1 (stereo unspecified) | > 100 µM (inactive) | 70.1 µM (inactive) | > 100 µM (inactive) | > 100 µM (inactive) | > 100 µM (inactive) | 37.2 | 6.65 µM (inactive) |  | > 100 µM (inactive) | 77.3 µM (inactive) | 11.4 µM (inactive) | 61 µM (inactive) | > 100 µM (inactive) | > 100 µM (inactive) | 61.1 µM (inactive) | 92.5 µM (inactive) | > 100 µM (inactive)
COCOCC/C=C/C=O | > 100 µM (inactive) | > 100 µM (inactive) |  | > 100 µM (inactive) | > 100 µM (inactive) | > 100 | > 100 µM (inactive) | > 100 µM (inactive) | > 100 µM (inactive) | > 100 µM (inactive) | > 100 µM (inactive) | > 100 µM (inactive) | > 100 µM (inactive) | > 100 µM (inactive) | > 100 µM (inactive) | > 100 µM (inactive) | > 100 µM (inactive)
O=[N+]([O-])c1ccc2nc3ccscc-3c2c1 | 15.2 µM (inactive) | 22.6 µM (inactive) | 15.5 µM (inactive) | 12.4 µM (inactive) | 27.4 µM (inactive) | 15.2 | 7.08 µM (inactive) | 8.49 µM (inactive) |  |  | 8.36 µM (inactive) | 18.5 µM (inactive) | 14.1 µM (inactive) | 8.13 µM (inactive) | 4.81 µM (inactive) | 10.8 µM (inactive) | 
COc1cc(C)c2c(c1C)OC(=O)c1c(C)c(Cl)c(O)c(C=O)c1O2 | 19.5 µM (inactive) | 20.4 µM (inactive) |  |  | 24.2 µM (inactive) |  | 31.8 µM (inactive) | 12.2 µM (inactive) | 10.2 µM (inactive) | 20.8 µM (inactive) | 13.9 µM (inactive) | 29.2 µM (inactive) | 17.4 µM (inactive) | 11.2 µM (inactive) | 9.02 µM (inactive) |  | 14.3 µM (inactive)
NC(CCc1nc(-c2ccc(Cl)cc2)cs1)C(=O)O (stereo unspecified) | > 100 µM (inactive) | > 100 µM (inactive) | > 100 µM (inactive) | > 100 µM (inactive) | > 100 µM (inactive) | 74 | > 100 µM (inactive) |  | > 100 µM (inactive) | > 100 µM (inactive) | > 100 µM (inactive) | > 100 µM (inactive) | > 100 µM (inactive) | > 100 µM (inactive) | > 100 µM (inactive) | > 73.5 µM (inactive) | > 100 µM (inactive)
CC1(C)C(=O)C(C)(C)C1=NNC(N)=S | > 100 µM (inactive) | > 100 µM (inactive) | > 100 µM (inactive) | > 100 µM (inactive) | > 100 µM (inactive) | > 100 | > 100 µM (inactive) | > 100 µM (inactive) | > 100 µM (inactive) | > 100 µM (inactive) |  | > 100 µM (inactive) | > 100 µM (inactive) | > 100 µM (inactive) | > 100 µM (inactive) | > 100 µM (inactive) | > 100 µM (inactive)
CCCN(CCCC(NC(C)=O)C(=O)NCc1ccccc1)C(=O)NC (stereo unspecified) | > 100 µM (inactive) | > 100 µM (inactive) | > 100 µM (inactive) | > 100 µM (inactive) | > 100 µM (inactive) | > 100 | > 100 µM (inactive) | > 100 µM (inactive) | > 100 µM (inactive) | > 100 µM (inactive) | > 100 µM (inactive) | > 100 µM (inactive) | > 100 µM (inactive) | > 100 µM (inactive) |  | > 100 µM (inactive) | 
CC(=O)CCn1[nH]c(=O)c(Cl)c(Cl)c1=O | > 100 µM (inactive) | > 100 µM (inactive) | > 100 µM (inactive) |  | > 100 µM (inactive) | > 100 | 15 µM (inactive) | > 100 µM (inactive) | > 100 µM (inactive) | > 100 µM (inactive) | > 100 µM (inactive) |  | > 100 µM (inactive) | > 100 µM (inactive) | > 100 µM (inactive) | > 100 µM (inactive) | > 100 µM (inactive)
Nc1nc(N)c2ncn(CCOC(c3ccccc3)P(=O)(O)O)c2n1 (stereo unspecified) | > 100 µM (inactive) | > 100 µM (inactive) |  | > 100 µM (inactive) | > 100 µM (inactive) | > 100 | > 100 µM (inactive) | > 100 µM (inactive) | > 100 µM (inactive) | > 100 µM (inactive) | > 100 µM (inactive) | > 100 µM (inactive) | > 100 µM (inactive) | > 100 µM (inactive) | > 100 µM (inactive) |  | > 100 µM (inactive)
